This experiment concerns HL-60 cells. Kind of experiment: Bead-based miRNA expression profiling of HL-60 cells treated with all-trans retinoic acid. The experiment is classed as cell-based, human. To be noted: 1 μM all-trans retinoic acid, 1, 3 and 5 days. On the procedure:
Details of sample information are available in Table 9. Total RNAs were prepared from tissues or cell lines using TRIzol (INVITROGEN™, Carlsbad, Calif.), as described (Ramaswamy et al., 2001), and in compliance with IRB protocols. Leukemia bone marrow mononuclear cells were collected from patients treated at ST. JUDE […]′S […] HOSPITAL™ and at DANA-FARBER CANCER […]™ and their immunophenotype and genotype determined as previously described (Ferrando et al., 2002; Yeoh et al., 2002). Normal mouse lung and mouse lung cancer samples were collected from KRasLA1 mice, and genotyped as described (Johnson et al., 2001). Lungs from four- to five-month old mice were inflated with phosphate-buffered saline prior to removal. Individual lung tumors and normal lungs were dissected and immediately frozen on dry ice before RNA preparation. HL-60 cells were plated at 1.5×10^5 cell/ml and induced to differentiate by 1 μM all-trans retinoic acid (SIGMA™, St. Louis, Mo.; in ethanol). […]
miRNA capture probes were 5′-amino-modified oligonucleotides with a 6-carbon linker (IDT). […] Median fluorescence intensity values were measured.
Profiling data were first scaled according to the post-labeling-controls and then the pre-labeling-controls, in order to normalize readings from different probe/bead sets for the same sample, and to normalize for the labeling efficiency, as detailed in Materials and Methods of Example 3. […]

On to `CC1=C(/C=C/C(C)=C/C=C/C(C)=C/C(=O)O)C(C)(C)CCC1` [tretinoin, all-trans-retinoic acid], for which the “miRNA expression in HL-60 cells” value is listed as “induction of many miRNAs coincident with differentiation”. The “miRNA expression in HL-60 cells” value (listed as ATRA) was “increased expression of many miRNAs”.

For the origin of these results see US20110015080A1, “Solution-based methods for RNA expression profiling” (MASSACHUSETTS INSTITUTE OF TECHNOLOGY, priority 2005, published 2011).
